Measurements taken from patent US20110237605A1, “Molecular Crystal of (4-(1,8-Naphthyridin-2-YL)Piperidin-1-YL)Pyrimidine Derivative” (priority 2010, published 2011).

Assay: Physical (polymorph) stability of suspension to bead milling and autoclaving, followed by XRPD
Type: physicochemical
Description: The following experiment evidences such stability of the claimed molecular crystal.
A 30 mg/ml suspension of the compound having Formula I (referred to as “BOL-303050”) was made in PBS-0.15% Polysorbate 80 and put in a vial. The contents of the vial were milled by 1 mm zirconia milling beads for 5 times, 2 minutes each at 2400 rpm in a DAC 150 FV Speedmixer and shaken to suspend the drug. An aliquot was withdrawn for XRPD (see FIG. 4, suspension milled). The withdrawn aliquot was centrifuged and dried before XRPD scan.
The remainder of the vial contents was autoclaved at 121° c. for 30 minutes. After autoclaving another sample was removed for XRPD (see FIG. 4, suspension milled and autoclaved). Sample was centrifuged and dried before XRPD scan.
To the remaining sample, 1 mm zirconia milling beads were added and the sample was milled 5 times, for 2 minutes each at 2400 rpm in a DAC 150 FV Speedmixer. After bead milling, a sample was removed for XRPD (see FIG. 4, suspension milled, autoclaved then milled again). Sample was centrifuged and dried before XRPD scan.
The remainder was autoclaved at 121° C. for 30 minutes (see FIG. 4, suspension milled, autoclaved, milled again, then autoclaved). Sample was centrifuged and dried before XRPD scan.
Samples were compared to the XRPD spectrum of the original API sample.

Compound | polymorphic change by XRPD on autoclaving (30 mg/ml suspension in PBS-0.15% Polysorbate 80, milled, autoclaved at 121° C. for 30 minutes (initial cycle)) | effect of milling on drug polymorph by XRPD (1 mm zirconia milling beads, 5 times, 2 minutes each at 2400 rpm) | stability of crystal form, comparison of XRPD spectra (FIG. 4) (further milling and/or autoclaving) | effect of subsequent autoclaving on polymorph by XRPD (milled, autoclaved, milled again, then autoclaved at 121° C. for 30 minutes)
COc1ccc(S(=O)(=O)N[C@@H](CNc2nc(C)nc(N3CCC(c4ccc5c(n4)NCCC5)CC3)c2C)C(=O)O)cc1 [BOL-303050, (S)-3-(2,5-dimethyl-6-(4-(5,6,7,8-tetrahydro-1,8-naphthyridin-2-yl)piperidin-1-yl)pyrimidin-4-ylamino)-2-(4-methoxyphenylsulfonamido)propanoic acid] | polymorphic changes occurred only during the initial autoclave cycle | did not affect the drug polymorph |  | 
COc1ccc(S(=O)(=O)N[C@@H](CNc2nc(C)nc(N3CCC(c4ccc5c(n4)NCCC5)CC3)c2C)C(=O)O)cc1 [claimed novel drug polymorph, (S)-3-(2,5-dimethyl-6-(4-(5,6,7,8-tetrahydro-1,8-naphthyridin-2-yl)piperidin-1-yl)pyrimidin-4-ylamino)-2-(4-methoxyphenylsulfonamido)propanoic acid] |  |  | stable | did not affect the claimed novel drug polymorph
